The test deals with Adult mongrel dogs. The test can be described thus: Cardiotonic activity in anesthetized dogs (MAP, HR, dP/dtmax, contractile force), iv infusion. The format is in vivo. The note with it: for change in vivo at 1.875 mg/kg / ED (50% increase): Canis lupus familiaris; for ED (50% increase): dose producing 50% increase above baseline in myocardial contractile force, graphical estimation (n<3) or linear regression (n≥3), read-out: contractile force (CF) ED50. As to the method: Adult mongrel dogs were anesthetized with sodium pentobarbital (45 mg/kg, i.p.) and artificially respired. Mean arterial pressure (MAP) was recorded from a cannulated femoral artery and drugs were infused into a cannulated femoral vein. The arterial pressure pulse was used to trigger a cardiotachometer for determination of heart rate (HR). Left ventricular pressure was measured with a Millar catheter and dP/dtmax was derived. A right thoracotomy was performed and myocardial contractile force (CF) was measured with a Walton Brodie strain gauge sutured to the right ventricle. The ventricular muscle was stretched to produce a baseline tension of 100 g. A standard dose of dopamine (10-15 ug/kg/min for 3 min) was administered to determine myocardial responsiveness to inotropic stimulation. Test compounds were solubilized in a small volume of DMF diluted to a final concentration of 10% in physiological saline. Alternatively, where possible, a soluble hydrochloride salt was prepared by addition of 0.1N HCl diluted in physiological saline. Vehicles were tested in appropriate volumes and found to exert less than a 5% effect on contractile force. For iv studies, compounds were administered by infusion pump (one drug per animal) at rates of 0.58-2.2 mL/min in three to four stepwise increasing doses. Each dose was infused over 5 min immediately after the effect of the previous dose peaked. MAP, HR, dP/dtmax and CF responses were continuously monitored on a Beckman or Gould recorder and expressed as a percent change from pre-drug control values vs. the cumulative dose of drug administered. For these studies, n represents the number of test animals used.
Quantitation of the inotropic potency was obtained by calculation of the contractile force (CF) ED50. This was defined as the dose of compound that produced a 50% increase above baseline in myocardial contractile force. The value was obtained from three to four point dose-response curves using either graphical estimation (n<3) or linear regression analysis (n≥3). Numbers in parentheses are number of animals screened.

Where [1] appears, read: cumulative dose 1.875 mg/kg, femoral artery, read-out: MAP (mean arterial pressure), % Δ from control.
The mark [2] stands for this setting: cumulative dose 1.875 mg/kg, read-out: HR (heart rate), % Δ from control.
Setting [3] is: cumulative dose 1.875 mg/kg, read-out: dP/dt (left ventricular dP/dtmax), % Δ from control.
The mark [4] stands for this setting: cumulative dose 1.875 mg/kg, right ventricle strain gauge, read-out: CF (myocardial contractile force), % Δ from control.

We go through ten molecules from US5001127A, “4-substituted pyrazolo[3,4-d]pyrimidine derivatives” (Ortho Pharmaceutical Corporation, priority 1989, dated 1991).

Where two headings read alike, the source gives them in different places.

Consider `OC(CSc1ncnc2c1cnn2CC1CO1)CN1CCN(C(c2ccccc2)c2ccccc2)CC1` (stereo not drawn) [Example 5, 1-(1,2-Epoxy-3-propanyl)-4-[1-(diphenylmethylpiperazin-4-yl]-2-hydroxy-3-propanylthio]-1H-pyrazolo[3,4-d]pyrimidine], for which, under “cumulative dose 1.875 mg/kg”, the “HR (heart rate), % Δ from control” value is -14 % Δ from control and the “dP/dt (left ventricular dP/dtmax), % Δ from control” value is on record as 28 % Δ from control. Further, the “MAP (mean arterial pressure), % Δ from control” value (cumulative dose 1.875 mg/kg, femoral artery) was -8 % Δ from control. Further, the “CF (myocardial contractile force), % Δ from control” value (cumulative dose 1.875 mg/kg, right ventricle strain gauge) was 38 % Δ from control.
Regarding `CC(=O)OC(CNc1ncnc2[nH]ncc12)CN1CCN(C(c2ccc(F)cc2)c2ccc(F)cc2)CC1` (stereo not drawn) [Example 8, 4-[3-[4-Bis(4-fluorophenyl)methyl]-1-piperazinyl]-2-acetoxypropylamino-1H-pyrazolo[3,4-d]pyrimidine Hemihydrate], the change in vivo at 1.875 mg/kg by setting is: under setting [1], 6%; under setting [2], -1%; under setting [3], 61%; under setting [4], 135%.
The like results for `OC(CNc1ncnc2[nH]ncc12)CN1CCN(C(c2ccc(F)cc2)c2ccc(F)cc2)CC1` (stereo not drawn) [Example 7, 4-[3-[4-Bis(4-fluorophenyl)methyl]-1-piperazinyl]-2-hydroxypropylamino-1H-pyrazolo[3,4-d]pyrimidine sesquihydrate] were, in that order, 6%, -20%, 33% and 111%.
The like results for `OC(CSc1ncnc2[nH]ncc12)CN1CCN(C(c2ccccc2)c2ccccc2)CC1` (stereo not drawn) [Example 2, 4-[2-Hydroxy-1-[(diphenylmethyl)piperazin-4-yl)-3-propanylthio]-1H-pyrazolo[3,4-d]pyrimidine Hemihydrate] were, in that order, -12%, -11%, 48% and 97%.
The matching figures for `CON(CC(O)CN1CCN(C(c2ccc(F)cc2)c2ccc(F)cc2)CC1)c1ncnc2[nH]ncc12` (stereo not drawn) [Example 11, 4-[3-[4-Bis(4-fluorophenyl)methyl-1-piperazinyl-2-hydroxypropyl-N-methoxyamino]-(1H)-pyrazolo[3,4-d]pyrimidine.5/4 Hydrate]: -2%, 5%, 25% and 37%.
Turning to `OC(COc1ncnc2c1cnn2C1CCCCO1)CN1CCN(C(c2ccc(F)cc2)c2ccc(F)cc2)CC1` (stereo not drawn) [Example 3, 4-[3-[4-[Bis(4-fluorophenyl)methyl]-piperazin-1-yl]-2-hydroxy-propoxy]-1-(tetrahydropyran-2-yl)pyrazolo[3,4-d]pyrimidine], the change in vivo at 1.875 mg/kg was -13% under setting [1], 1% under setting [2], 1% under setting [3] and 14% under setting [4].
For the molecule `OC(CSc1ncnc2[nH]ncc12)CN1CCN(C(c2ccc(F)cc2)c2ccc(F)cc2)CC1` (stereo not drawn) [Example 1], the ED (50% increase) was 0.225 mg/kg. Moreover, the change in vivo at 1.875 mg/kg under setting [1] was -3%. Besides, the change in vivo at 1.875 mg/kg under setting [2] was -10%. For the same molecule, the change in vivo at 1.875 mg/kg under setting [3] is 124%. For the same molecule, the change in vivo at 1.875 mg/kg under setting [4] worked out at 205%.
With `CN(CC(O)CN1CCN(C(c2ccc(F)cc2)c2ccc(F)cc2)CC1)c1ncnc2[nH]ncc12` (stereo not drawn) [Example 9, 4-[3-[4-Bis(4-fluorophenyl)methyl-1-piperazinyl]-2-hydroxypropylamino-N-methylamino-1H-pyrrazolo[3,4-d]pyrimidine Hemihydrate], the change in vivo at 1.875 mg/kg runs as follows: under setting [1], 4%; under setting [2], 3%; under setting [3], 52%; under setting [4], 54%.
The like results for `CCN(CC(O)CN1CCN(C(c2ccc(F)cc2)c2ccc(F)cc2)CC1)c1ncnc2[nH]ncc12` (stereo not drawn) [Example 10, 4-[3-[4-Bis(4-fluorophenyl)methyl]-1-piperazinyl]-2-hydroxypropyl-N-ethylamino]-1H-pyrazolo[3,4-d]pyrimidine.1/4 Hydrate] were, in that order, 3%, 13%, 44% and 63%.
`OC(CSc1ncnc2[nH]ncc12)CN1CCN(C(c2ccc(Cl)cc2)c2ccc(Cl)cc2)CC1` (stereo not drawn) [Example 4, 4-[1-[1-[Bis(4-chlorophenyl)methyl]piperazin-4-yl]-2-hydroxy-3-pronanylthio]-1H-pyrazolo[3,4-d]pyrimidine]: the ED (50% increase) is 0.45 mg/kg. Moreover, under setting [1], the change in vivo at 1.875 mg/kg stood at 8%. Moreover, under setting [2], the change in vivo at 1.875 mg/kg worked out at 1%. The change in vivo at 1.875 mg/kg under setting [3] was determined as 90%. Also, under setting [4], the change in vivo at 1.875 mg/kg was found to be 163%.
